Data taken from ChEMBL document CHEMBL1201862, “PubChem BioAssay data set” (2004).
Active and inactive are the calls of the source.

Columns and labels:
[1] = biological target: Induced myeloid leukemia cell differentiation protein Mcl-1 (Homo sapiens, UniProt Q07820); test: MCL1-BIM BH3 interaction inhibitors, dose response, biochemical, fluorescence polarization, BIM-BH3 peptide, 1536-well (AID 2217)
Bcl-2-like protein 1 = Bcl-2-like protein 1 (Homo sapiens, UniProt Q07817); test: BCL-XL inhibitors, dose response, selectivity assay for MCL1 inhibitor project, biochemical, fluorescence polarization, 1536-well (AID 2218)
Protein Tat = Protein Tat (Human immunodeficiency virus type 1 group M subtype B (isolate HXB2)(HIV-1), UniProt P04608); type: functional;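 also: tat binding to TAR RNA read out by fluorescence polarization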
[2] = THP-1 cell cytotoxicity, dose response, cytotoxicity control for Vif-APOBEC3G degradation inhibitor project, THP-1 cells (AID 1117359); type: functional; conditions: Human immunodeficiency virus 1, THP-1
[3] = inhibitors of Vif binding to APOBEC3G peptide, primary screen, biochemical, TR-FRET, GST-Vif 1-94, biotin-A3G peptide, dose response retest (AID 1117319); type: functional;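 also: TR-FRET signal of purified GST-Vif binding a biotinylated A3G peptide; inhibitors lower the FRET signal by blocking Vif and A3G binding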
[4] = biological target: T1, Calpain-2 catalytic subunit (Sus scrofa, UniProt P43367); test: pig calpain II inhibitor potency, dose response, biochemical, fluorogenic peptide substrate (AID 1420); type: functional
T1 sequence (P43367 whole entry): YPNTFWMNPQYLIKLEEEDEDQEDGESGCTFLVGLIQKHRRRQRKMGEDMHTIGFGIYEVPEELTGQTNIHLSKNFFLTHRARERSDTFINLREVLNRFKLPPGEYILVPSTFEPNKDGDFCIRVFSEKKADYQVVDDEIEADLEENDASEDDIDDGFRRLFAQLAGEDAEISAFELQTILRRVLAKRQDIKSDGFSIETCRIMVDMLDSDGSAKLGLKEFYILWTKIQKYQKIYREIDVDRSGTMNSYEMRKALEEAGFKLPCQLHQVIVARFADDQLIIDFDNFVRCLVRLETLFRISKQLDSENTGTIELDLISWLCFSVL

Transthyretin = Transthyretin (Homo sapiens, UniProt P02766); test: Luminescence-based cell-based high throughput dose response assay to identify activators of Transthyretin (TTR) transcription.; type: functional
[5] = biological target: Heat shock protein HSP 90-alpha (Homo sapiens, UniProt P07900); test: Luminescence-based dose response biochemical high throughput screening assay for inhibitors of the Heat Shock Protein 90 (HSP90). [Related pubchem assays: 1831 (Summary AID.), 1846 (Confirmation screen.), 1789 (Primary screen.)]
[6] = biological target: Sphingosine 1-phosphate receptor 2 (Homo sapiens, UniProt O95136); test: Dose Response Cell Based Assay for Agonists of the S1P2 Receptor. [Related pubchem assays: 729, 736, 843 ]; type: functional
Estrogen receptor beta = Estrogen receptor beta (Homo sapiens, UniProt Q92731); test: ERβ–SRC-3 coactivator interaction inhibitors, confirmation, orthogonal assay, biochemical, ELISA, streptavidin-HRP readout (AID 1060)
[7] = biological target: Protein-tyrosine kinase 2-beta (Homo sapiens, UniProt Q14289);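 also: potency of inhibitors of PYK2 kinase phosphorylation of poly-GT substrate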
Nonstructural protein 1 = Nonstructural protein 1 (Influenza A virus, UniProt Q194T2); type: functional, Influenza A virus (A/California/07/2009(H1N1))
[8] = biological target: FAD-linked sulfhydryl oxidase ALR (Homo sapiens, UniProt P55789); test: inhibitors of human ALR sulfhydryl oxidase, dose response, biochemical, H2O2 detection, luminescence, cherry-pick (AID 493248)
[9] = biological target: T2, DNA repair and recombination protein RAD54-like (Homo sapiens, UniProt Q92698); test: inhibitors of human RAD54 branch migration, confirmation, biochemical, fluorescence, cherry-picked samples, dose series (AID 651657); type: functional
T2 sequence (Q92698 whole entry): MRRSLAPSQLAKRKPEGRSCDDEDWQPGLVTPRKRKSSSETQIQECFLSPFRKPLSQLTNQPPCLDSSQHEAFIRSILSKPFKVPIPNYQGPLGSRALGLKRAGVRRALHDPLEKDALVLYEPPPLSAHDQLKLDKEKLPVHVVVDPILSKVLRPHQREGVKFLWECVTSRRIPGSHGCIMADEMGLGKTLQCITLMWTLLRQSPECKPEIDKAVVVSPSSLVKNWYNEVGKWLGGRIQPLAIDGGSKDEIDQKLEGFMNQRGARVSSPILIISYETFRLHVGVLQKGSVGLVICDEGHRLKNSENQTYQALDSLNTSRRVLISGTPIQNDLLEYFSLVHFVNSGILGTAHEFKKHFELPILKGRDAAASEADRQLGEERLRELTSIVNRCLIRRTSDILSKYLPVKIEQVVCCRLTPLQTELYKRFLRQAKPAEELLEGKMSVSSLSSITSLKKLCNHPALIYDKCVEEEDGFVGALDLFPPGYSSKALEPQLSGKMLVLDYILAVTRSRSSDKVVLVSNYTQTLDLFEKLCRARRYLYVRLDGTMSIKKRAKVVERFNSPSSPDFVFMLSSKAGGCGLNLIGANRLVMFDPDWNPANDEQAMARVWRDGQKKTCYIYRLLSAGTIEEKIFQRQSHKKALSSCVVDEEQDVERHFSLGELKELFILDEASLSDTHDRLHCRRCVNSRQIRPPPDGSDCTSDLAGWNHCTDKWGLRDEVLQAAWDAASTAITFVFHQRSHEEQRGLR

[10] = biological target: T3, Rac GTPase-activating protein 1 (Homo sapiens, UniProt Q9H0H5); test: MgcRacGAP GTPase-activating activity inhibitors, confirmation, biochemical, ADP Hunter fluorescence, primary and confirmatory (AID 624330); type: functional
T3 sequence (Q9H0H5 whole entry): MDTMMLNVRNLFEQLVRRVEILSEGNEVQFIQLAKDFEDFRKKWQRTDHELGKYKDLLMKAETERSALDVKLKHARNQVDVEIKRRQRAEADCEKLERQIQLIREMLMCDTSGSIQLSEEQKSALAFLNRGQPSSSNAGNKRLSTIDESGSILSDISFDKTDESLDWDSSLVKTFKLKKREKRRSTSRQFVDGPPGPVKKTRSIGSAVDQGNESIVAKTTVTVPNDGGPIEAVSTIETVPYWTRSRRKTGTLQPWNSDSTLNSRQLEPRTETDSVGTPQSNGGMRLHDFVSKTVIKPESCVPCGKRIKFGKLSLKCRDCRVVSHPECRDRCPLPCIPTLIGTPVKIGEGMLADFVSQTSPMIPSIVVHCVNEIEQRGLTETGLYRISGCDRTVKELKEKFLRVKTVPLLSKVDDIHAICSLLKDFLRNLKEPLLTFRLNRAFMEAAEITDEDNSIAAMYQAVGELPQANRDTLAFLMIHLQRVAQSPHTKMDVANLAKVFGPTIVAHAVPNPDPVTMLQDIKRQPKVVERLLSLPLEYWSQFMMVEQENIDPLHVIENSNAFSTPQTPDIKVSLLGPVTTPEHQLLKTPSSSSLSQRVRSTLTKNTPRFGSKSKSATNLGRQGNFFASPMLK

[11] = biological target: Glutathione-S-transferase (Schistosoma japonicum, UniProt Q26513); test: biotin-GST/anti-GST TR-FRET signal inhibitors, dose response, artefact control for Vif-APOBEC3G degradation inhibitor project, biochemical (AID 1117362); type: functional
[12] = HepG2 cell cytotoxicity, dose response, cytotoxicity control, CellTiter-Glo luminescence, dry powder, set 20 (AID 1117291); type: functional, cell-based
[13] = HEK293T cell cytotoxicity, dose response, cytotoxicity control, CellTiter-Glo luminescence, dry powder, set 20 (AID 1117293); type: functional, cell-based; conditions: HEK293
[14] = biological target: Metabotropic glutamate receptor 7 (Homo sapiens, UniProt Q14831); test: mGlu7 positive allosteric modulators, dose response, cell-based, calcium mobilization, Galpha15 (AID 743384); type: functional
[15] = HepG2 cell cytotoxicity, dose response, cytotoxicity control, plate reader, dry powder, set 6 (AID 743311); type: functional, cell-based
cells = conditions: HEK293
[16] = test system: Streptococcus sp. 'group A'; test: growth inhibition of control SK(-) GAS strain, dose response, counter-screen for streptokinase expression inhibitor project, luminescence, kanamycin, BacTiterGlo, confirmation (AID 1900); type: functional, organism-based
Streptococcus = test: Group A Streptococcus viability loss, dose response, counter-screen for streptokinase expression inhibitor project, luminescence, BacTiterGlo (AID 1915); type: functional, organism-based;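 also: potency for reduction of bacterial viability or growth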
Hexokinase = biological target: T4, Hexokinase (Trypanosoma brucei, UniProt Q38C41); test: Confirmation assay for inhibitors of Trypanosoma brucei hexokinase 1-Analogue-first series. [Related pubchem assays (depositor defined):AID1430, AID1632, AID2516, AID2560, AID2579, AID2600, AID449725, AID492951]; type: functional
T4 sequence (Q38C41 whole entry): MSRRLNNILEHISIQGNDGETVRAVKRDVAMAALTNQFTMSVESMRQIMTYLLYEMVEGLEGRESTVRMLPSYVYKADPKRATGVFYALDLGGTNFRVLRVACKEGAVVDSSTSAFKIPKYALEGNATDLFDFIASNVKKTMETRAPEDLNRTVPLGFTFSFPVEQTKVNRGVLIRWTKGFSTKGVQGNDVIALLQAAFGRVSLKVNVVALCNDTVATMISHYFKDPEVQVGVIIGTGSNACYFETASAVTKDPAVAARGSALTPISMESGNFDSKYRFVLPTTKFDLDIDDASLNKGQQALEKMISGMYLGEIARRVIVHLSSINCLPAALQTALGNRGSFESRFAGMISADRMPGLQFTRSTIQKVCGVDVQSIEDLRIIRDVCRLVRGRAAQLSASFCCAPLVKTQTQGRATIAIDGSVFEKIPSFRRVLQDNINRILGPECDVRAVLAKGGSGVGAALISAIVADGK

[17] = biological target: T5, Small ubiquitin-related modifier 1 (Homo sapiens, UniProt P63165); test: inhibitors of SUMO1 peptide binding, dose response, biochemical, fluorescence polarization, uHTS hits (AID 624382); type: functional; conditions: read-out: IC50_Mean
[18] = biological target: T5, Small ubiquitin-related modifier 1; test: inhibitors of SUMO1 partner interactions, dose response, biochemical, FRET (AID 624383); type: functional; conditions: read-out: IC50_Mean
[19] = Concentration-dependent survival of SW480 colon cancer line, luminescence detection with CellTiter-Glo, half-maximal inhibitory concentration (AID 1117338); type: functional
[20] = RKO cell viability reduction, dose response, CellTiter-Glo luminescence (AID 1117322); type: functional
[21] = cytotoxicity toward HCT116 cells – cell-based, CellTiter-Glo luminescence, IC50, dose response (AID 1117332); type: functional; conditions: HCT-116
[22] = SNU-C1 cell viability reduction, dose response, CellTiter-Glo luminescence (AID 1117323); type: functional, cell-based
[23] = cytotoxicity toward Colo320 cells – cell-based, CellTiter-Glo luminescence, IC50, dose response (AID 1117334); type: functional; conditions: COLO 320
[24] = cytotoxicity toward HT-29 cells – cell-based, CellTiter-Glo luminescence, IC50, dose response (AID 1117330); type: functional
[25] = CellTiter-Glo luminescent dose response of DLD-1 viability loss (AID 1117352); type: functional
[26] = HeLa 2N DNA content increase, dose response, cell-based, IC50 (AID 1117349); type: functional
[27] = HeLa 4N DNA content increase, dose response, cell-based, IC50 (AID 1117351); type: functional
[28] = HCT116 cell viability decrease, GSK3B pretreatment – CellTiter-Glo, IC50, dose response (AID 1117339); type: functional; conditions: HCT-116

T5 sequence (P63165 whole entry): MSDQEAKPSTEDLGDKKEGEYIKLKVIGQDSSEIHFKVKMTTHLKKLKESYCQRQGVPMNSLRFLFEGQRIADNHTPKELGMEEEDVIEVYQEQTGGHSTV
Chain of Induced myeloid leukemia cell differentiation protein Mcl-1 (Q07820 whole entry): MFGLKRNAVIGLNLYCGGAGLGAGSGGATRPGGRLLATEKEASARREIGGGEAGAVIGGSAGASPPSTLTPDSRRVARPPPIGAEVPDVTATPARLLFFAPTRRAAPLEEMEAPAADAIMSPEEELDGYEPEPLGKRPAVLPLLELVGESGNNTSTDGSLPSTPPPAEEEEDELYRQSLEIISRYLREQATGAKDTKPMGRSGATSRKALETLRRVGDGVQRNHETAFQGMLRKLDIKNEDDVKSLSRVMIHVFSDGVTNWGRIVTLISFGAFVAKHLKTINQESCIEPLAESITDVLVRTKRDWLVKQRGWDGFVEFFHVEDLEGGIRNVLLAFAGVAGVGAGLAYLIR
Chain of Bcl-2-like protein 1 (Q07817 whole entry): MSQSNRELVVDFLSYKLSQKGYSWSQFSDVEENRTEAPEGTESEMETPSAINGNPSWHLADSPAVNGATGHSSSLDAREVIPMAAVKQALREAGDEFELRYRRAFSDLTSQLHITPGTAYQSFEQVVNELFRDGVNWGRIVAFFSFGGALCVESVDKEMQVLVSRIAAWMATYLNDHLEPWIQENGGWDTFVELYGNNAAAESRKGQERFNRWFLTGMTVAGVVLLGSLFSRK
Chain of FAD-linked sulfhydryl oxidase ALR (P55789 whole entry): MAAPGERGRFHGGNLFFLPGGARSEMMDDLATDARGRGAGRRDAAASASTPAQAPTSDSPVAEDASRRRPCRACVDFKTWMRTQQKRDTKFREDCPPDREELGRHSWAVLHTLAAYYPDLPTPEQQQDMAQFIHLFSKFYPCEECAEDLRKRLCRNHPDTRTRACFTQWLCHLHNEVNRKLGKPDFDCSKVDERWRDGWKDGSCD
Chain of Protein-tyrosine kinase 2-beta (Q14289 whole entry): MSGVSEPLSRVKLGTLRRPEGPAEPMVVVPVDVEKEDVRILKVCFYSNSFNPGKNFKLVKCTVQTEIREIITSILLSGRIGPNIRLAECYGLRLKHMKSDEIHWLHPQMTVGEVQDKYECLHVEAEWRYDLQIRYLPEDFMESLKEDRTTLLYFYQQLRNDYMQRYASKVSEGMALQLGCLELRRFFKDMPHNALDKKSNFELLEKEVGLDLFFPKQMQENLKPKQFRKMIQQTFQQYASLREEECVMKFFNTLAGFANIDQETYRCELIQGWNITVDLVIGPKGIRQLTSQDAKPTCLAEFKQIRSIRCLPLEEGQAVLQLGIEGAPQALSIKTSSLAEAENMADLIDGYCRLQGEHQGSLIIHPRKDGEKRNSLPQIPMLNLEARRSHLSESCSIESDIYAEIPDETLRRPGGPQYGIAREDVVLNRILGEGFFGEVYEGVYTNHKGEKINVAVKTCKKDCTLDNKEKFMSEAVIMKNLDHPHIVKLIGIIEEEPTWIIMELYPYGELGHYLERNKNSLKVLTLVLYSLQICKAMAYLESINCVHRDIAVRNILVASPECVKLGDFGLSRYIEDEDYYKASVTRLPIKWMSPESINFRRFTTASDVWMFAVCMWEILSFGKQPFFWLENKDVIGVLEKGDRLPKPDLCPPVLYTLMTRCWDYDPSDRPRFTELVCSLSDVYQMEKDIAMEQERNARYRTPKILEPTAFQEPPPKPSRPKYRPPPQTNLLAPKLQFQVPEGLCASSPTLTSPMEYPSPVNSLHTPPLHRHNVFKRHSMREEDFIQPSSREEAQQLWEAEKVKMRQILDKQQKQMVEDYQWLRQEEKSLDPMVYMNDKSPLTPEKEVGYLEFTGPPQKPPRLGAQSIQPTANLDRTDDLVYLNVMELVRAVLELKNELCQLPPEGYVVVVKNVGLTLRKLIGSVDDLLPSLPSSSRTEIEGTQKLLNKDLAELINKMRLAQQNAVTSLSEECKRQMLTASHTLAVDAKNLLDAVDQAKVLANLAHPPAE
Chain of Sphingosine 1-phosphate receptor 2 (O95136 whole entry): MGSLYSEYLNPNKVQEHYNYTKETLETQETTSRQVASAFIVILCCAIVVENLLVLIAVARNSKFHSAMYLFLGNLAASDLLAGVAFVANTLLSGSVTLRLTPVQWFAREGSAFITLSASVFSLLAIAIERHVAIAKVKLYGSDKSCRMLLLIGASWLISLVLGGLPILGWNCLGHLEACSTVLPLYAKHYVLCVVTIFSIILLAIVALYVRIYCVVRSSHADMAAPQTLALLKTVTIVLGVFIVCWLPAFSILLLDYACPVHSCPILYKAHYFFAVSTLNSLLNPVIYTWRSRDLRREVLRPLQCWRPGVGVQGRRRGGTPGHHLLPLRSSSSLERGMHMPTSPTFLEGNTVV
Chain of Glutathione-S-transferase (Q26513 whole entry): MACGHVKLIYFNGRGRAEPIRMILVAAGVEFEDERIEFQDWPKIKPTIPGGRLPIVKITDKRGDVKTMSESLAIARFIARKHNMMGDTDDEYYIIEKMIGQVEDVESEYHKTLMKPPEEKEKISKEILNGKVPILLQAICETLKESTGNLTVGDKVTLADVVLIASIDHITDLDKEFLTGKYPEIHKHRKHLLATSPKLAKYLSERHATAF
Chain of Estrogen receptor beta (Q92731 whole entry): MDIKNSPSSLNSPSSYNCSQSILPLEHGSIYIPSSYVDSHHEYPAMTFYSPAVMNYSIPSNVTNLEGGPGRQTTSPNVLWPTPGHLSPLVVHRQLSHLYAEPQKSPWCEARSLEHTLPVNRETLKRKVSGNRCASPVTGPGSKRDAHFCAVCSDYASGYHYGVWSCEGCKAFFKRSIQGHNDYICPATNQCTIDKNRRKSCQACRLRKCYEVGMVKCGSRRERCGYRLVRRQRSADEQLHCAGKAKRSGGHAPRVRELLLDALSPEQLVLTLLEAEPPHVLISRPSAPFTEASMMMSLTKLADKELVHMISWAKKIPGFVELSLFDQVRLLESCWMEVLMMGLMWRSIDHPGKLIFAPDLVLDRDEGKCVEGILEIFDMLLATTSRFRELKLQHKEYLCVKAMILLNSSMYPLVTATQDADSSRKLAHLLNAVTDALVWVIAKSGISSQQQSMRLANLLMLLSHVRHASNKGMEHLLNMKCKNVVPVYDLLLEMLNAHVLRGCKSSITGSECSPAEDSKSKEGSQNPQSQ
Chain of Protein Tat (P04608 whole entry): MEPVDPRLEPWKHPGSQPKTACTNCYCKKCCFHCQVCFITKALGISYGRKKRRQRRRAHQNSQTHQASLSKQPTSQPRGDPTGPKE
Chain of Nonstructural protein 1 (Q194T2 whole entry): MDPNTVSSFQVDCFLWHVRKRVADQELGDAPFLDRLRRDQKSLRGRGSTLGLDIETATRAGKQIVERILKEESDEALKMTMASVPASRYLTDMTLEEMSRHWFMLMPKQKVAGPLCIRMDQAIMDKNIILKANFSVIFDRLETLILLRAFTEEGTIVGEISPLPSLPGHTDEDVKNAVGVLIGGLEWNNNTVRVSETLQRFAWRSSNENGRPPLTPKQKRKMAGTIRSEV
Chain of Metabotropic glutamate receptor 7 (Q14831 whole entry): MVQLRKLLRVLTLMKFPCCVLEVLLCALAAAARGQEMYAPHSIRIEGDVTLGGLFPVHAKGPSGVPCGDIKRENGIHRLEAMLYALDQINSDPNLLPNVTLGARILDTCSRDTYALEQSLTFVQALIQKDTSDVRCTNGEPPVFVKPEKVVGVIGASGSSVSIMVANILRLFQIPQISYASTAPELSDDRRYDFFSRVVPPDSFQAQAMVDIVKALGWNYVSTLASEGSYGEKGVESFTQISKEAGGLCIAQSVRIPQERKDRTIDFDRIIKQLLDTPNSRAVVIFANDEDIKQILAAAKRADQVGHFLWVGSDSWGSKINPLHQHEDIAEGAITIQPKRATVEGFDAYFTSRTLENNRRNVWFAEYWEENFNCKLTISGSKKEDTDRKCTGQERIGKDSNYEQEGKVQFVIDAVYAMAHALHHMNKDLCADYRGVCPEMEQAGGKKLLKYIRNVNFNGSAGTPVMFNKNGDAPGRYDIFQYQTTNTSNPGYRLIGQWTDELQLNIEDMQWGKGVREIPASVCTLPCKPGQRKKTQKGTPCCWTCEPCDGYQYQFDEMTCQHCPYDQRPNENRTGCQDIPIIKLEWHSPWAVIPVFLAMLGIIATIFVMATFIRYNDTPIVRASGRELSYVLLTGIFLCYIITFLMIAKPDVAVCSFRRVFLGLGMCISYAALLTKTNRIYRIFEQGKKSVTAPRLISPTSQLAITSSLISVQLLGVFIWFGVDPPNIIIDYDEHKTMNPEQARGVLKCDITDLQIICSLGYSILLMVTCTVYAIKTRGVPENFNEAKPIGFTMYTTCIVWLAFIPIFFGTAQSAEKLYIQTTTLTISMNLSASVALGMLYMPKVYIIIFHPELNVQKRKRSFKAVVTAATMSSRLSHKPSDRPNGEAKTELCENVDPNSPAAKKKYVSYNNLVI

O=C(c1cc(-c2ccco2)nn1-c1cccc(Cl)c1)N1CCCCC1
IC50 [1]: > 109 µM (not active) | IC50 (Bcl-2-like protein 1): > 109 µM (not active) | IC50 (Protein Tat): > 100 µM (inconclusive) | CC50 [2]: > 40 µM (active) | IC50 [3]: > 60.7 µM (active)

c1cc2c(cc1C1=Nn3c(nnc3C3CCCCC3)SC1)OCO2
IC50 [4]: 10.9 µM (not active) | EC50 (Transthyretin): > 167 µM (inactive)

O=[N+]([O-])c1ccc(S(=O)(=O)N2CCN=C2SCc2ccc(F)cc2)cc1
IC50 [5]: 4.79 µM (active)

Cc1cccc(C(=O)NC2CC3CCCC(C2)N3C(=O)NC2CCCCC2)c1 (configuration not stated)
EC50 [6]: > 50 µM (not active)

CN1CCN(c2ccc(N)cc2)CC1
IC50 (Estrogen receptor beta): 7.13 µM (not active) | IC50 [7]: 2.83 µM (active) | IC50 (Nonstructural protein 1): 53.7 µM (active) | AC50 [8]: 3.83 µM (active) | AC50 [9]: 21.9 µM (active) | IC50 [10]: 32.3 µM (active) | IC50 [11]: 18.4 µM (active)

O=S(=O)(Nc1cc(C(F)(F)F)ccc1N1CCCCC1)c1cc(Cl)cc(Cl)c1
AC50 [12]: 45.8 µM (active) | AC50 [13]: 41 µM (active)

CC(=O)Nc1ccc(SCC(=O)c2cc(C)n(-c3cccc(F)c3)c2C)cc1
EC50 [14]: 1.6 µM (active)

Sc1nc2cc(Cl)ccc2n1CCOc1ccccc1
AC50 [15]: > 52 µM (inactive) | AC50 (cells): > 52 µM (inactive)

Cc1cc(C(C#N)c2ccc(Cl)cc2)c(Cl)cc1NC(=O)c1cc(I)cc(I)c1O (configuration not stated) [CLOSANTEL]
EC50 [16]: 0.114 µM (active) | EC50 (Streptococcus): 0.092 µM (active) | IC50 (Hexokinase): 25 µM (inactive) | IC50 [17]: > 66.6 µM (inactive) | IC50 [18]: 6.59 µM (active) | IC50 [19]: 0.046 µM (active) | IC50 [20]: 0.197 µM (active) | IC50 [21]: 0.0978 µM (active) | IC50 [22]: 0.0438 µM (active) | IC50 [23]: 0.116 µM (active) | IC50 [24]: 0.126 µM (active) | IC50 [25]: 0.069 µM (active)

CC(=O)O[C@@]12CO[C@@H]1C[C@H](O)[C@@]1(C)C(=O)[C@H](O)C3=C(C)[C@@H](OC(=O)[C@H](O)[C@@H](NC(=O)OC(C)(C)C)c4ccccc4)C[C@@](O)([C@@H](OC(=O)c4ccccc4)[C@H]21)C3(C)C [DOCETAXEL]
IC50 [26]: 0.0031 µM (active) | IC50 [19]: 0.001 µM (active) | IC50 [20]: 0.001 µM (active) | IC50 [21]: 0.001 µM (active) | IC50 [22]: > 20 µM (inactive) | IC50 [23]: 0.001 µM (active) | IC50 [27]: 0.00335 µM (active) | IC50 [24]: 0.001 µM (active) | IC50 [28]: 0.001 µM (active)
